# Tests used:
# [1] = decomposition of stephacidin B into avrainvillamide (FIG. 18); type: physicochemical
# [2] = tested on: cultured human cancer cells; conditions: reported for the fungal isolates; cited from earlier work
# [3] = tested on: multidrug-resistant bacteria; conditions: reported; cited from earlier work
# cell cycle = experiment: effect of avrainvillamide on the cell cycle (FIG. 19); type: cell-based
# apoptosis and necrosis = experiment: induction of apoptosis and necrosis (FIG. 20); type: cell-based
# Method: FIG. 20 induces apoptosis at 1-4 μM and necrosis at 8 μM.
# [4] = 1,5-addition of methanol-d4 to 2
# [5] = stability in solution protected from light
# [6] = interconversion of stephacidin B (1) and 2 in solution; type: physicochemical; conditions: 50% DMSO-d6-CD3CN, 23° C.
# Method: Our preliminary studies leave little doubt that 1 and 2 are readily interconverted in solution. For example, concentration of an acetonitrile-water solution of pure synthetic stephacidin B (1) at 38° C. afforded a 2:1 mixture of 2 and 1, as well as unidentified decomposition products. Also, whereas solutions of pure 1 in 50% DMSO-d6-CD3CN appeared to be stable for at least 48 h at 23° C. (The merits of the DMSO-d6-CD3CN solvent system in stabilizing stephacidin B were discussed in Qian-Cutrone et al. J. Am. Chem. Soc. 2002, 124, 14556; incorporated herein by reference.), addition of powdered 3-Å molecular sieves led to partial retro-dimerization, giving a 2:1 mixture of 1 and 2 within 1 h at 23° C. We also observed partial transformation of 1 to form 2 upon exposure to silica gel (2D-TLC analysis). From the data thus far it is clear that (−)-2 and (+)-1 readily interconvert under mild conditions. […] In theory, the converse may be true, though this seems less likely, simply upon consideration of concentration effects. Our results also leave open the possibility that stephacidin B is an artifact of the isolation of 2; the converse may be true instead, though this would appear to be less likely.
compound,measurement,setting,value
CC1(C)C=Cc2c(ccc3c2[N+]([O-])=C2C(C)(C)[C@@H]4C[C@]56CCCN5C(=O)C4(NC6=O)C4N5C(=O)C67CCCN6C(=O)[C@]56C(C7)C(C)(C)c5c(c7ccc8c(c7n5O)C=CC(C)(C)O8)[C@H]6C234)O1 (stereo partly drawn) [stephacidin B],avrainvillamide formed by decomposition of stephacidin B,[1],1.7 equiv.
same,antiproliferative activity,[2],exhibit antiproliferative activity
"CC1(C)C=Cc2c(ccc3c2[N+]([O-])=C2C3=C[C@@]34NC(=O)[C@]5(CCCN5C3=O)C[C@H]4C2(C)C)O1 [compound 1, avrainvillamide]",antimicrobial activity,[3],antimicrobial activity against multidrug-resistant bacteria
CC1(C)C=Cc2c(ccc3c2[N+]([O-])=C2C3=C[C@@]34NC(=O)[C@]5(CCCN5C3=O)C[C@H]4C2(C)C)O1 [avrainvillamide],effect on the cell cycle,cell cycle,induces arrest in G2/M
same,concentration inducing apoptosis,apoptosis and necrosis,1 to 4 µM
same,concentration inducing necrosis,apoptosis and necrosis,8 µM
same,antimicrobial activity,[3],anti-microbial activity against multidrug-resistant bacteria
same,"equilibrium constant, methanol-d4 adducts combined to 2","[4]; 23° C., tentative",7.7
same,"time to form the products of 1,5-addition of methanol-d4","[4]; pure methanol-d4, 23° C.",< 10 min
same,half-life,[4]; solution in pure methanol-d4,< 10 min
same,species present under physiological conditions,[1],major species present under physiological conditions
same,antiproliferative activity,[2],exhibit antiproliferative activity
"CC(C)(C)/C=C/C=[N+]([O-])c1ccccc1 [α-(trans-3,3-dimethyl-1-butenyl)-N-phenylnitrone]",time stable in solution,"[5]; 37 mM solution in methylene-d2-chloride, 23° C., protected from light",at least 7 h
same,stability upon concentration to dryness,[5]; 1H NMR analysis,decomposed within two hours
avrainvillamide [compound 1],time solutions appeared stable,[6],at least 48 h

# — patent US7902196B2, “Synthesis of avrainvillamide, strephacidin B, and analogues thereof” (President and Fellows of Harvard College, priority 2005, dated 2011)
